# Tested on: anaphylactic asthma in guinea-pigs
# Experiment: Antagonism to anaphylactic asthma in guinea-pigs (inhibitory effect from number of surviving animals)
# Assay type: in vivo, guinea-pig (male Hartley strain)
# Conditions: oral, 30 minutes before egg albumin challenge, survival more than 2 hours after antigen spray, *Dose group: 5 guineapigs (compound D)
# Procedure: Equal volumes of a saline solution of egg albumin (200 mg/ml) and of Freund's Complete Ajuvant were mixed and emulsified. Each male New Zealand white strain rabbits, each weighing 2 to 2.5 kg., received an intramuscular injection of 0.5 ml of the emulsion in the left and right thigh regions. One week later, they received an intradermal injection of 0.25 ml of a saline solution of egg albumin (concentration: 20 mg/ml) in the different four sites of the dorsal skin surface three times every other week. Blood samples were collected from the carotid artery one week after the last injection.
# The level of anaphylactic anti-egg albumin antibodies in pools of sera were determined by passive cutaneous anaphylaxis (PCA) reactions using shaven Hartley strain test guinea-pigs.
# Antiserum was serially diluted (two fold) in saline and 0.1 ml of each antiserum dilution were injected intradermally into the dorsal skin surface of the test guinea-pigs. 24 hours after intradermal sensitization,Egg albumin-specific PCA reactions were elicited by intravenous injection of 10 mg of egg albumin in 1 ml of 1% Evans blue dye dissolved in saline. Reactions were read and recorded as the highest dilution of serum evoking threshold PCA reactivity (5 mm diameter).
# Male Hartley strain guinea-pigs, weighing 305 to 400 g, were used. Animals were sensitized by an intravenous injection of rabbit antiserum against egg albumin (4000 PCA titer) with 0.5 ml/animal. After 24 hours, animals were placed individually in a plastic chamber of 5.3 liter volume. An aerosol of 5% egg albumin solution was sprayed in the chamber at a rate of 0.16 ml/min with a commercial nebulizer. The test compounds were given to the animals orally 30 minutes before the challenge with the egg albumin solution. Each dose group consisted of 3 or 5 animals. The inhibitory effect of the test compounds was determined from the number of surviving animals more than 2 hours after spray of the antigen.
smiles,measurement,setting,value
"CS(=O)(=O)Nc1nc(CN2CCN(C(c3ccccc3)c3ccccc3)CC2)cs1 [Compound A, 4-(4-Benzhydrylpiperazin-1-ylmethyl)-2-methanesulfonamidothiazole]",Inhibitory Effect,Dose 1 mg/kg,100%
same,Inhibitory Effect,Dose 10 mg/kg,100%
"CCS(=O)(=O)Nc1nc(CN2CCN(C(c3ccccc3)c3ccccc3)CC2)cs1 [Compound B, 4-(4-Benzhydrylpiperazin-1-ylmethyl)-2-ethanesulfonamidothiazole]",Inhibitory Effect,Dose 1 mg/kg,67%
same,Inhibitory Effect,Dose 10 mg/kg,100%
"CCCS(=O)(=O)Nc1nc(CN2CCN(C(c3ccccc3)c3ccccc3)CC2)cs1 [Compound C, 4-(4-Benzhydrylpiperazin-1-ylmethyl)-2-propanesulfonamidothiazole]",Inhibitory Effect,Dose 1 mg/kg,100%
same,Inhibitory Effect,Dose 10 mg/kg,100%
"CC(=O)Nc1nc(CCCN2CCN(C(c3ccccc3)c3ccccc3)CC2)cs1 [Compound D, 4-[3-(4-Benzhydrylpiperazin-1-yl)-propyl]-2-acetamidothiazole]",Inhibitory Effect,Dose 1 mg/kg,40%
same,Inhibitory Effect,Dose 10 mg/kg,100%

# Reference: US4411900A, “Benzhydrylpiperozinyl thiazole derivatives and pharmaceutical composition comprising the same” (Fujisawa Pharmaceutical Co., Ltd., priority 1980, dated 1983)
